Laboratory results from ChEMBL document CHEMBL1201862, “PubChem BioAssay data set” (2004).
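Compound exposure: 48 hours, 5 concentrations, 96-well plates. GI50 is the concentration that inhibits growth by half.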 The source made the active and inactive calls. Cut-off read from the data, not from the text of the source: active = GI50 up to about 1.1 µM and inactive = higher.

How the values were obtained:
Experiment in all cases: growth of human tumour cells (NCI), 48 h
[1] = system: U-251
[2] = system: OVCAR-3
[3] = system: HOP-62
[4] = system: SK-OV-3
[5] = system: LOX IMVI
[6] = system: OVCAR-5
[7] = system: NCI-H23
[8] = system: CCRF-CEM
[9] = system: TK-10
[10] = system: SF-295
[11] = system: NCI-H226
[12] = system: SK-MEL-2
[13] = system: EKVX
[14] = system: Malme-3M
[15] = system: ACHN
[16] = system: T47D
[17] = system: M14
[18] = system: SK-MEL-28
[19] = system: SNB-75

Row | Structure (SMILES) | GI50 [1] | GI50 [2] | GI50 [3] | GI50 [4] | GI50 [5] | GI50 [6] | GI50 [7] | GI50 [8] | GI50 [9] | GI50 [10] | GI50 [11] | GI50 [12] | GI50 [13] | GI50 [14] | GI50 [15] | GI50 [16] | GI50 [17] | GI50 [18] | GI50 [19]
1 | CCOC(=O)c1c(N2CCCC2)nsc1Nc1ccc(F)cc1 | 41.9 µM (inactive) | > 100 µM (inactive) | 63.5 µM (inactive) | 41 µM (inactive) | 53.7 µM (inactive) | 25.4 µM (inactive) | 27.1 µM (inactive) | 28.1 µM (inactive) | 57.7 µM (inactive) | 60 µM (inactive) | 60.4 µM (inactive) | 19.2 µM (inactive) | 8.38 µM (inactive) | 21.9 µM (inactive) | 31.2 µM (inactive) | 9.57 µM (inactive) | 48.8 µM (inactive) | 54.3 µM (inactive) | –
2 | C#CC(O)/C=C/C(O)CCCC(O)CC#CC(O)C#CCCCCC(O)/C=C/CCCC(=O)CCCCCCCCCCCCCCCC(O)C(O)C#CC(=O)O (stereo unspecified) | > 25 µM (inactive) | – | > 25 µM (inactive) | > 25 µM (inactive) | 5.37 µM (inactive) | > 25 µM (inactive) | > 25 µM (inactive) | > 25 µM (inactive) | > 25 µM (inactive) | > 25 µM (inactive) | > 25 µM (inactive) | > 25 µM (inactive) | > 25 µM (inactive) | > 25 µM (inactive) | > 25 µM (inactive) | 14.2 µM (inactive) | > 25 µM (inactive) | > 25 µM (inactive) | > 25 µM (inactive)
3 | C=CC[C@@H]1C(=O)[C@@]2(O[Si](C(C)C)(C(C)C)C(C)C)CC[C@@H]1C[C@H]2NC(=O)OCC(Cl)(Cl)Cl | > 100 µM (inactive) | 90.8 µM (inactive) | > 100 µM (inactive) | > 100 µM (inactive) | 41.5 µM (inactive) | > 100 µM (inactive) | > 100 µM (inactive) | 60 µM (inactive) | > 100 µM (inactive) | 5.35 µM (inactive) | > 100 µM (inactive) | 60 µM (inactive) | – | – | 73.8 µM (inactive) | > 100 µM (inactive) | > 100 µM (inactive) | > 100 µM (inactive) | > 100 µM (inactive)
4 | CC(=O)NC(CCCN(Cc1ccccc1)C(=O)N(CCCl)N=O)C(=O)NCc1ccccc1 (stereo unspecified) | 10.9 µM (inactive) | 98.6 µM (inactive) | 7.24 µM (inactive) | 55.6 µM (inactive) | 2.92 µM (inactive) | 35.2 µM (inactive) | 27 µM (inactive) | 23 µM (inactive) | > 85.5 µM (inactive) | 6.19 µM (inactive) | 44.9 µM (inactive) | > 66.5 µM (inactive) | > 72.9 µM (inactive) | > 53.1 µM (inactive) | 10.8 µM (inactive) | – | 42.7 µM (inactive) | 78.3 µM (inactive) | 9.02 µM (inactive)
5 | NCCCN1CCN(CCCNc2ccc3ncn4c5ccccc5c(=O)c2c34)CC1 | 1.02 µM (active) | 4.07 µM (inactive) | 1.71 µM (inactive) | 4.98 µM (inactive) | 0.875 µM (active) | 3.61 µM (inactive) | 2.51 µM (inactive) | 1.41 µM (inactive) | 4.2 µM (inactive) | 3.71 µM (inactive) | – | 2.8 µM (inactive) | 2.85 µM (inactive) | 2.36 µM (inactive) | 1.49 µM (inactive) | 3.02 µM (inactive) | 2.79 µM (inactive) | 4.47 µM (inactive) | 3.13 µM (inactive)
6 | COc1ccccc1NC(=O)C(CC(C(=O)Nc1ccccc1OC)/C(C)=N/Nc1ccc([N+](=O)[O-])cc1[N+](=O)[O-])/C(C)=N/Nc1ccc([N+](=O)[O-])cc1[N+](=O)[O-] (stereo unspecified) | > 100 µM (inactive) | 77.4 µM (inactive) | > 95.5 µM (inactive) | > 92.7 µM (inactive) | 40.2 µM (inactive) | > 100 µM (inactive) | > 83.8 µM (inactive) | 63.5 µM (inactive) | 14.6 µM (inactive) | > 93.1 µM (inactive) | > 100 µM (inactive) | > 100 µM (inactive) | > 88.7 µM (inactive) | > 100 µM (inactive) | > 86.1 µM (inactive) | – | 40.4 µM (inactive) | > 83.2 µM (inactive) | 52.1 µM (inactive)
7 | COCOc1ccc(C(=O)Oc2cccc3c2OC(C)(C)O3)c(OCOC)c1 | 27.9 µM (inactive) | > 100 µM (inactive) | > 100 µM (inactive) | > 100 µM (inactive) | 35.7 µM (inactive) | > 100 µM (inactive) | < 0.01 µM (active) | 22.1 µM (inactive) | > 100 µM (inactive) | > 100 µM (inactive) | > 100 µM (inactive) | – | > 100 µM (inactive) | – | > 100 µM (inactive) | 37.8 µM (inactive) | 89.1 µM (inactive) | 9.66 µM (inactive) | 74.5 µM (inactive)
8 | NC(CCc1nc(-c2ccc(Cl)cc2)cs1)C(=O)O (stereo unspecified) | > 100 µM (inactive) | > 100 µM (inactive) | > 100 µM (inactive) | > 100 µM (inactive) | > 100 µM (inactive) | > 100 µM (inactive) | > 100 µM (inactive) | > 100 µM (inactive) | > 100 µM (inactive) | > 100 µM (inactive) | > 100 µM (inactive) | > 100 µM (inactive) | > 100 µM (inactive) | > 100 µM (inactive) | > 100 µM (inactive) | – | > 100 µM (inactive) | > 100 µM (inactive) | > 100 µM (inactive)
9 | CCCN(CCCC(NC(C)=O)C(=O)NCc1ccccc1)C(=O)NC (stereo unspecified) | > 100 µM (inactive) | > 100 µM (inactive) | > 100 µM (inactive) | > 100 µM (inactive) | > 100 µM (inactive) | > 100 µM (inactive) | > 100 µM (inactive) | > 100 µM (inactive) | > 100 µM (inactive) | > 100 µM (inactive) | > 100 µM (inactive) | > 100 µM (inactive) | > 100 µM (inactive) | > 100 µM (inactive) | > 100 µM (inactive) | – | > 100 µM (inactive) | > 100 µM (inactive) | 13.7 µM (inactive)
10 | COc1cc(/C=C/c2ccnc3ccccc23)cc(OC)c1OC | 4.99 µM (inactive) | 3.3 µM (inactive) | 7.16 µM (inactive) | 4.19 µM (inactive) | 4.63 µM (inactive) | 7.8 µM (inactive) | 1.66 µM (inactive) | 2.09 µM (inactive) | 5.37 µM (inactive) | 8.47 µM (inactive) | 5.04 µM (inactive) | 3.78 µM (inactive) | 8.87 µM (inactive) | 2.98 µM (inactive) | 7.23 µM (inactive) | 3.81 µM (inactive) | 3.63 µM (inactive) | 3.08 µM (inactive) | –
11 | CCN(C(=N)C#N)c1ccccc1 | 65.9 µM (inactive) | > 100 µM (inactive) | > 100 µM (inactive) | > 100 µM (inactive) | 47.2 µM (inactive) | > 100 µM (inactive) | > 100 µM (inactive) | > 54.5 µM (inactive) | > 100 µM (inactive) | > 100 µM (inactive) | > 100 µM (inactive) | > 100 µM (inactive) | > 100 µM (inactive) | > 100 µM (inactive) | > 100 µM (inactive) | – | > 100 µM (inactive) | > 100 µM (inactive) | > 100 µM (inactive)
